Key:
hERG K+ channels = hERG K+ channels (Homo sapiens (Human), UniProt Q12809); test: hERG channel inhibition assay (patch-clamp, CHOhERG cells); type: cell-based; details: for safety window (hERG IC20/TLR7/8/9 IC50): compared to the compounds of this invention; for hERG IC20/TLR7 IC50 / hERG IC20/TLR9 IC50: safety ratio
Description: hERG Channel Inhibition Assay:
The hERG K^+ channels were cloned in humans and stably expressed in a CHO (Chinese hamster ovary) cell line. CHOhERG cells were used for patch-clamp (voltage-clamp, whole-cell) experiments. Cells were stimulated by a voltage pattern to activate hERG channels and conduct IKhERG currents (rapid delayed outward rectifier potassium current of the hERG channel). After the cells were stabilized for a few minutes, the amplitude and kinetics of IKhERG were recorded at a stimulation frequency of 0.1 Hz (6 bpm). Thereafter, the test compound was added to the preparation at increasing concentrations. For each concentration, an attempt was made to reach a steady-state effect, usually, this was achieved within 3-10 min at which time the next highest concentration was applied. The amplitude and kinetics of IKhERG are recorded in each concentration of the drug which were compared to the control values (taken as 100%). (references: Redfern W S, Carlsson L, Davis A S, Lynch W G, MacKenzie I, Palethorpe S, Siegl P K, Strang I, Sullivan A T, Wallis R, Camm A J, Hammond T G. 2003; Relationships between preclinical cardiac electrophysiology, clinical QT interval prolongation and torsade de pointes for a broad range of drugs: evidence for a provisional safety margin in drug development. Cardiovasc. Res. 58:32-45, Sanguinetti M C, Tristani-Firouzi M. 2006; hERG potassium channels and cardiac arrhythmia. Nature 440:463-469, Webster R, Leishman D, Walker D. 2002; Towards a drug concentration effect relationship for QT prolongation and torsades de pointes. Curr. Opin. Drug Discov. Devel. 5:116-26).

[1] = Human microsome stability assay; type: in vitro ADME; details: 1 μM test compound, 0.5 mg/mL liver microsomal protein
Description: Human Microsome Stability Assay
The human microsomal stability assay is used for early assessment of metabolic stability of a test compound in human liver microsomes.
Human liver microsomes (Cat. NO.: 452117, Corning, USA; Cat. NO.: H2610, Xenotech, USA) were preincubated with test compound for 10 minutes at 37° C. in 100 mM potassium phosphate buffer, pH 7.4. The reactions were initiated by adding NADPH regenerating system. The final incubation mixtures contained 1 μM test compound, 0.5 mg/mL liver microsomal protein, 1 mM MgCl2, 1 mM NADP, 1 unit/mL isocitric dehydrogenase and 6 mM isocitric acid in 100 mM potassium phosphate buffer, pH 7.4. After incubation times of 0, 3, 6, 9, 15 and 30 minutes at 37° C., 300 μL of cold acetonitrile (including internal standard) was added to 100 μL incubation mixture to terminate the reaction. Following precipitation and centrifugation, the amount of compound remaining in the samples were determined by LC-MS/MS. Controls of no NADPH regenerating system at zero and 30 minutes were also prepared and analyzed.

Chain of hERG K+ channels (Q12809 whole entry): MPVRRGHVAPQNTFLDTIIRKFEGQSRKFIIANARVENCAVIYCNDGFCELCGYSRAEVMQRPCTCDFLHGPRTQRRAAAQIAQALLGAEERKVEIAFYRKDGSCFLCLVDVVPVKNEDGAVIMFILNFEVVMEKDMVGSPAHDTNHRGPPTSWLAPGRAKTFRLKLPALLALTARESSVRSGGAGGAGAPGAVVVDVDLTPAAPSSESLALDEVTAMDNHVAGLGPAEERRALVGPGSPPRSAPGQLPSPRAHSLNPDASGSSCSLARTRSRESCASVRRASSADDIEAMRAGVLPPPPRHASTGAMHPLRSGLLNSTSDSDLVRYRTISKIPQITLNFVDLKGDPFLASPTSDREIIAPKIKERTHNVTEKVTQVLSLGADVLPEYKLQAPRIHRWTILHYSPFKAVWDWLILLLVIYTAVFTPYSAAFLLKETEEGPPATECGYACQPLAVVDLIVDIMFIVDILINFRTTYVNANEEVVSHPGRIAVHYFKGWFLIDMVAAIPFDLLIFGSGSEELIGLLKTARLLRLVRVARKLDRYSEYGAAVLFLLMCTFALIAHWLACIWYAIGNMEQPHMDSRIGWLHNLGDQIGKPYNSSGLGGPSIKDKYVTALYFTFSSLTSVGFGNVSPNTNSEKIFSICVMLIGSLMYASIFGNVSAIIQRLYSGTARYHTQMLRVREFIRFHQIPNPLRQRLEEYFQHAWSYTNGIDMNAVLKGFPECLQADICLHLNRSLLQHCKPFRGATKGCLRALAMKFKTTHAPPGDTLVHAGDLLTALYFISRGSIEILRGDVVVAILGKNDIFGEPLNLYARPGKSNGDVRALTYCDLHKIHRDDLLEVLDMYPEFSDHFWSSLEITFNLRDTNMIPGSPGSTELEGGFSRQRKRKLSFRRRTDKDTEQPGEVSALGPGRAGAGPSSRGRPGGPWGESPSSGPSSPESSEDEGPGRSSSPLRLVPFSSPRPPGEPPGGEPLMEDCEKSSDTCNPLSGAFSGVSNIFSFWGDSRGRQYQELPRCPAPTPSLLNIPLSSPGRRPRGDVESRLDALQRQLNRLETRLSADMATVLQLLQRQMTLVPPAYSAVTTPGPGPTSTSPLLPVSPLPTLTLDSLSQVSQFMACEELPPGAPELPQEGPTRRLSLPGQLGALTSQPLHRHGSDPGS

| Clearance of Human microsome [1] [mL/min/kg] | Structure (SMILES) | safety window (hERG IC20/TLR7/8/9 IC50) (hERG K+ channels) | hERG IC20/TLR7 IC50 (hERG K+ channels) | hERG IC20/TLR9 IC50 (hERG K+ channels) |
| --- | --- | --- | --- | --- |
|  | COc1ccc(N2CCN(C[C@H]3CN(c4ccc(C#N)c5ncccc45)C[C@@H](C)O3)CC2)cc1 [Example R1, 5-[(2S,6R)-2-[[4-(4-methoxyphenyl)piperazin-1-yl]methyl]-6-methyl-morpholin-4-yl]quinoline-8-carbonitrile] | much narrower safety window | 9.3 | 0.1 |
| 6.32 | [2H]c1ccc2c(N3C[C@H](CN4CCN(c5ccc6c(n5)CN[C@H]6C)CC4)O[C@H](C)C3)ccc(C#N)c2n1 [Example 99, 2-deuterio-5-[(2R,6S)-2-methyl-6-[[4-[(5S)-5-methyl-6,7-dihydro-5H-pyrrolo[3,4-b]pyridin-2-yl]piperazin-1-yl]methyl]morpholin-4-yl]quinoline-8-carbonitrile] |  |  |  |
|  | C[C@@H]1CN(c2ccc(C#N)c3ncccc23)C[C@H](CN2CCN(c3ccc(Cl)cc3)CC2)O1 [Example R2, 5-[(2S,6R)-2-[[4-(4-chlorophenyl)piperazin-1-yl]methyl]-6-methyl-morpholin-4-yl]quinoline-8-carbonitrile] | much narrower safety window | 1.3 | 0.04 |
| 6.15 | C[C@@H]1CN(c2ccc(C#N)c3ncccc23)C[C@H](CN2CCN(c3ccc4c(n3)CN[C@H]4C)CC2)O1 [Example 63, 5-[(2R,6S)-2-methyl-6-[[4-[(5S)-5-methyl-6,7-dihydro-5H-pyrrolo[3,4-b]pyridin-2-yl]piperazin-1-yl]methyl]morpholin-4-yl]quinoline-8-carbonitrile] |  |  |  |
|  | C[C@@H]1CN(c2ccc(C#N)c3ncccc23)C[C@H](CN2CCN(c3ccncc3)CC2)O1 [ER-888286] | much narrower safety window | 0.3 | 0.2 |
|  | C[C@@H]1CN(c2ccc(C#N)c3ncccc23)C[C@H](CN2CC3(C2)CN(c2cnc4c(n2)CCNC4)CCO3)O1 [Example 50, 5-[(2R,6S)-2-methyl-6-[[8-(5,6,7,8-tetrahydropyrido[3,4-b]pyrazin-2-yl)-5-oxa-2,8-diazaspiro[3.5]nonan-2-yl]methyl]morpholin-4-yl]quinoline-8-carbonitrile] |  |  | >144.9 |
|  | C[C@@H]1CN(c2ccc(C#N)c3ncccc23)C[C@H](CN2CCN(c3ccccc3)CC2)O1 [ER-887258] | much narrower safety window | 8.1 | 0.3 |
|  | C[C@@H]1CN(c2ccc(C#N)c3ncccc23)C[C@H](CN2CCN(c3ccccn3)CC2)O1 [ER-888285] | much narrower safety window | 8.4 | 0.5 |
| 7.13 | [2H]c1nc2c(C#N)ccc(N3C[C@H](CN4CCN(c5cc6c(cn5)[C@@H](C)NCC6)CC4)O[C@H](C)C3)c2nc1[2H] [Example 95, 2,3-dideuterio-8-[(2R,6S)-2-methyl-6-[[4-[(8R)-8-methyl-5,6,7,8-tetrahydro-2,7-naphthyridin-3-yl]piperazin-1-yl]methyl]morpholin-4-yl]quinoxaline-5-carbonitrile] |  |  |  |
| 6.15 | [2H]c1nc2c(C#N)ccc(N3C[C@H](CN4CCN(c5ccc6c(n5)CN[C@@H]6C)CC4)O[C@H](C)C3)c2nc1[2H] [Example 97, 2,3-dideuterio-8-[(2R,6S)-2-methyl-6-[[4-[(5R)-5-methyl-6,7-dihydro-5H-pyrrolo[3,4-b]pyridin-2-yl]piperazin-1-yl]methyl]morpholin-4-yl]quinoxaline-5-carbonitrile] |  |  |  |
| 6.23 | [2H]c1nc2c(C#N)ccc(N3C[C@H](CN4CCN(c5ccc6c(n5)CN[C@H]6C)CC4)O[C@H](C)C3)c2nc1[2H] [Example 96, 2,3-dideuterio-8-[(2R,6S)-2-methyl-6-[[4-[(5S)-5-methyl-6,7-dihydro-5H-pyrrolo[3,4-b]pyridin-2-yl]piperazin-1-yl]methyl]morpholin-4-yl]quinoxaline-5-carbonitrile] |  |  |  |
| 8.02 | [2H]c1ccc2c(N3C[C@H](CN4CCN(c5ccc6c(n5)CN[C@@H]6C)CC4)O[C@H](C)C3)ccc(C#N)c2n1 [Example 98, 2-deuterio-5-[(2R,6S)-2-methyl-6-[[4-[(5R)-5-methyl-6,7-dihydro-5H-pyrrolo[3,4-b]pyridin-2-yl]piperazin-1-yl]methyl]morpholin-4-yl]quinoline-8-carbonitrile] |  |  |  |
